Several values for one entry are separate records, joined by “and”; a condition that tells them apart may be missing. Equal entries are not always repeated. Where two headings read alike, the source gives them in different places.
Legend:
[1] = system: AsPC-1 cells; assay: Cell proliferation assay, chemodrug + ATR inhibitor (Incucyte confluence, 72 h); details: for EC50: Homo sapiens;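 as to all read-outs here: underlying read-out for every value is AsPC-1 confluence after 72 h incubation at 37 °C and 5% CO2, divided by that well's starting confluence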
Procedure: Cells were seeded at 5000 cells/well into 96-well flat bottom plates (Eppendorf) and allowed to attach overnight. […] Cells were incubated for 72 h at 37 °C and 5% CO2. Cell confluence readouts at 72 h were either normalized to their initial confluence using the Incucyte software (AsPC-1) or used without prior normalization (all others). […] Each experiment was performed in triplicates, the data was plotted as mean ± standard deviation (s.d.).

[2] = system: PaTu-8988-T; assay: cells; design: Viability of PDAC cell lines, ATPlite luminescence, 11-dose single-agent curve fit; details: Homo sapiens, PaTu 8988t, 72 h, read-out: EC50 [nM]
Procedure: (§1) Afterward, small amounts were transferred to 384-well intermediate plates (Greiner Bio-One GmbH, Germany). […] For drug combination screening, 1000 to 5000 cells were seeded into 384-well plates (CulturPlate™, Perkin Elmer, MA, USA) using a Multidrop™ Combi Reagent Dispenser (Thermo Scientific, MA, USA) in 50 µl medium per well 24 h prior to drug treatment (seeding densities see Appendix Table S1). […] The final DMSO concentration in each well was 0.2%. […] Eight wells per plate without library drug served as negative controls, and sixteen wells per plate containing 5 µM Staurosporine served as positive controls. […] Next, we analyzed the drug sensitivity of immortalized duct cell line HPDE to detect effects unrelated to pancreatic cancer.

[3] = system: HPDE; assay: cells; design: Viability of PDAC cell lines, ATPlite luminescence, 11-dose single-agent curve fit; details: HPDE, 72 h, read-out: EC50 [nM]
Procedure: as §1

[4] = system: FAMPAC; assay: cells; design: Viability of PDAC cell lines, ATPlite luminescence, 11-dose single-agent curve fit; details: 72 h, read-out: EC50 [nM]
Procedure: as §1

[5] = system: BxPC-3; assay: cells; design: Viability of PDAC cell lines, ATPlite luminescence, 11-dose single-agent curve fit; details: Homo sapiens, BXPC-3, 72 h, read-out: EC50 [nM]
Procedure: as §1

[6] = system: HuP-T4; assay: cells; design: Viability of PDAC cell lines, ATPlite luminescence, 11-dose single-agent curve fit; details: Homo sapiens, HuP-T4, 72 h, read-out: EC50 [nM]
Procedure: as §1

[7] = system: PANC-1; assay: cells; design: Viability of PDAC cell lines, ATPlite luminescence, 11-dose single-agent curve fit; details: Homo sapiens, PANC-1, 72 h, read-out: EC50 [nM]
Procedure: as §1

[8] = system: Dan-G; assay: cells; design: Viability of PDAC cell lines, ATPlite luminescence, 11-dose single-agent curve fit; details: 72 h, read-out: EC50 [nM]
Procedure: as §1

[9] = system: Suit2-07; assay: cells; design: Viability of PDAC cell lines, ATPlite luminescence, 11-dose single-agent curve fit; details: 72 h, read-out: EC50 [nM]
Procedure: as §1

[10] = system: AsPC-1; assay: cells; design: Viability of PDAC cell lines, ATPlite luminescence, 11-dose single-agent curve fit; details: Homo sapiens, ASPC1, 72 h, read-out: EC50 [nM]
Procedure: as §1

[11] = system: Colo-357; assay: cells; design: Viability of PDAC cell lines, ATPlite luminescence, 11-dose single-agent curve fit; details: Homo sapiens, COLO357, 72 h, read-out: EC50 [nM]
Procedure: as §1

[12] = system: Capan-1; assay: cells; design: Viability of PDAC cell lines, ATPlite luminescence, 11-dose single-agent curve fit; details: Homo sapiens, CAPAN-1, 72 h, read-out: EC50 [nM]
Procedure: as §1

[13] = system: PSN-1; assay: cells; design: Viability of PDAC cell lines, ATPlite luminescence, 11-dose single-agent curve fit; details: Homo sapiens, PSN1, 72 h, read-out: EC50 [nM]
Procedure: as §1

[14] = system: MiaPaCa-2; assay: cells; design: ATPlite luminescence viability of PDAC cell lines, 11-dose single-agent curves, 4-parameter fit; details: Homo sapiens, MIA PaCa-2, 72 h, read-out: EC50 [nM]
Procedure: as §1

[15] = AsPC-1, Experiment GEM (no ATRi), single replicates R1-R3
[16] = AsPC-1, Experiment GEM+ATRi_dose1, single replicates R1-R3
[17] = AsPC-1, Experiment GEM+ATRi_dose2, single replicates R1-R3
[18] = AsPC-1, Experiment GEM+ATRi_dose3, single replicates R1-R3

For `CC(=O)O[C@H]1C(=O)[C@@]2(C)[C@H]([C@H](OC(=O)c3ccccc3)[C@]3(O)C[C@H](OC(=O)[C@H](O)[C@@H](NC(=O)c4ccccc4)c4ccccc4)C(C)=C1C3(C)C)[C@]1(OC(C)=O)CO[C@@H]1C[C@@H]2O` [Paclitaxel], the Curve slope [1, 15] was 1.97 and 2.99 and 2.20, the Curve top [1, 15] was 0.44 and 0.38 and 0.36 and the Curve slope [1, 16] was 1.47 and 2.08 and 1.46. For the same compound, the Curve top [1, 16] was 0.45 and 0.37 and 0.39, the Curve slope [1, 17] was 2.59 and 1.83 and 1.78 and the Curve top [1, 17] was 0.45 and 0.38 and 0.37. For the same compound, the Curve bottom [1, 18] was 0.92 and 0.80, the Curve slope [1, 18] was 2.50 and 1.97 and 3.20 and the Curve top [1, 18] was 0.42 and 0.35 and 0.36. It also gave an EC50 ([1]; ASPC1, 72 h, AsPC-1, Experiment GEM (no ATRi), single replicates R1-R3) of 1.89 nM, an EC50 ([1]; ASPC1, 72 h, read-out: EC50 mean [nM], AsPC-1, Experiment GEM (no ATRi), mean of R1-R3, repeated in each replicate line) of 2.09 nM and an EC50 ([1]; ASPC1, 72 h, read-out: pEC50, AsPC-1 (converted), Experiment GEM (no ATRi), single replicates R1-R3) of 1.91 nM. It also gave an EC50 ([1]; ASPC1, read-out: EC50 mean [nM], AsPC-1, Experiment GEM (no ATRi), mean of R1-R3, repeated in each replicate line) of 2.09 nM, an EC50 ([1]; ASPC1, read-out: EC50 mean [nM], AsPC-1, Experiment GEM+ATRi_dose1, mean of R1-R3, repeated in each replicate line) of 2.62 nM and an EC50 ([1]; ASPC1, read-out: EC50 mean [nM], AsPC-1, Experiment GEM+ATRi_dose3, mean of R1-R3, repeated in each replicate line) of 2.03 nM. The Response ([1]; chemodrug 1 nM + ATRi 3 nM) was 78.95 and 82.15 and 71.41, the Response ([1]; chemodrug 1 nM + ATRi 10 nM) was 76.45 and 74.25 and 74.55 and the Response ([1]; chemodrug 1 nM + ATRi 30 nM) was 75.55 and 68.26 and 64.62. The Response ([1]; chemodrug 1 nM alone (ATRi 0 nM)) was 78.71 and 81.33 and 75.17, the Response ([1]; chemodrug 3 nM + ATRi 3 nM) was 63.11 and 58.53 and 53.51 and the Response ([1]; chemodrug 3 nM + ATRi 10 nM) was 46.62 and 47.02 and 47.86. The Response ([1]; chemodrug 3 nM + ATRi 30 nM) was 47.65 and 42.95 and 41.75, the Response ([1]; chemodrug 3 nM alone (ATRi 0 nM)) was 51.76 and 52.32 and 44.31 and the Response ([1]; chemodrug 10 nM + ATRi 3 nM) was 44.83 and 35.01 and 34.23. For the same compound, the Response ([1]; chemodrug 10 nM + ATRi 10 nM) was 38.43 and 33.69 and 33.51, the Response ([1]; chemodrug 10 nM + ATRi 30 nM) was 39.64 and 34.49 and 30.28 and the Response ([1]; chemodrug 10 nM alone (ATRi 0 nM)) was 41.65 and 34.17 and 31.46. For the same compound, the Response ([1]; chemodrug 30 nM + ATRi 3 nM) was 39.42 and 37.16 and 36.82, the Response ([1]; chemodrug 30 nM + ATRi 10 nM) was 50.74 and 48.74 and 42.64 and the Response ([1]; chemodrug 30 nM + ATRi 30 nM) was 37.65 and 29.32 and 30.21. The Response ([1]; chemodrug 30 nM alone (ATRi 0 nM)) was 37.54 and 28.80 and 29.10, the Response ([1]; chemodrug 100 nM + ATRi 3 nM) was 42.23 and 38.61 and 46.44 and the Response ([1]; chemodrug 100 nM + ATRi 10 nM) was 39.32 and 32.95 and 29.28. For the same compound, the Response ([1]; chemodrug 100 nM + ATRi 30 nM) was 43.96 and 36.95 and 33.77, the Response ([1]; chemodrug 100 nM alone (ATRi 0 nM)) was 39.78 and 30.74 and 27.32 and the Response ([1]; chemodrug 300 nM + ATRi 3 nM) was 37.81 and 31.67 and 30.77. The Response ([1]; chemodrug 300 nM + ATRi 10 nM) was 33.31 and 30.07 and 28.41, the Response ([1]; chemodrug 300 nM + ATRi 30 nM) was 35.70 and 31.17 and 27.41 and the Response ([1]; chemodrug 300 nM alone (ATRi 0 nM)) was 37.36 and 36.59 and 31.62. The Response ([1]; chemodrug 1000 nM + ATRi 3 nM) was 37.14 and 28.54 and 28.57, the Response ([1]; chemodrug 1000 nM + ATRi 10 nM) was 36.12 and 27.22 and 30.37 and the Response ([1]; chemodrug 1000 nM + ATRi 30 nM) was 34.38 and 27.12 and 28.86. For the same compound, the Response ([1]; chemodrug 1000 nM alone (ATRi 0 nM)) was 37.88 and 33.79 and 33.23, the Response ([1]; chemodrug 3000 nM + ATRi 3 nM) was 36.69 and 27.57 and 27.01 and the Response ([1]; chemodrug 3000 nM + ATRi 10 nM) was 34.07 and 26.83 and 25.03. The Response ([1]; chemodrug 3000 nM + ATRi 30 nM) was 28.21 and 28.84 and 28.63, the Response ([1]; chemodrug 3000 nM alone (ATRi 0 nM)) was 33.73 and 34.70 and 28.11 and the “sensitization of AsPC-1 cells to the chemodrug by Elimusertib” value ([1]; chemodrug + three sub-EC50 doses of Elimusertib) was “not”.

With `COc1ccc(CN2[C@@H]3C[C@H]2CN(c2ccc(-c4cc(OCC(C)(C)O)cn5ncc(C#N)c45)cn2)C3)cn1` [Selpercatinib] the EC50 [2] was 543 nM, the EC50 [3] was 4930 nM and the EC50 [4] was > 10000 nM. The EC50 [5] was 2980 nM, the EC50 [6] was 72.1 nM and the EC50 [7] was 3470 nM. For the same compound, the EC50 [8] was 6000 nM, the EC50 [9] was 1160 nM and the EC50 [10] was 4660 nM. The EC50 [11] was 4280 nM, the EC50 [12] was > 10000 nM and the EC50 [13] was > 10000 nM. The EC50 [14] was 2900 nM.

`Cc1cccc(-c2nn3c(c2-c2ccnc4ccc(C(N)=O)cc24)CCC3)n1` [Galunisertib] was tested, and the EC50 [2] was 98.7 nM, the EC50 [3] was 230 nM and the EC50 [4] was 155 nM. For the same compound, the EC50 [5] was 333 nM, the EC50 [6] was 1480 nM and the EC50 [7] was 60.8 nM. The EC50 [8] was 47.4 nM, the EC50 [9] was 3360 nM and the EC50 [10] was 72.9 nM. The EC50 [11] was 302 nM, the EC50 [12] was 151 nM and the EC50 [13] was 0.11 nM.

For `CC(C)(C)c1cc(NC(=O)Nc2ccc(-c3cn4c(n3)sc3cc(OCCN5CCOCC5)ccc34)cc2)no1` [Quizartinib], the EC50 [2] was 96.7 nM, the EC50 [3] was 2670 nM and the EC50 [4] was 2490 nM. The EC50 [5] was 1570 nM, the EC50 [6] was 1020 nM and the EC50 [7] was 515 nM. It also gave an EC50 [8] of 932 nM, an EC50 [9] of 155 nM and an EC50 [10] of 1530 nM. The EC50 [11] was 61.4 nM, the EC50 [12] was 1420 nM and the EC50 [13] was 1470 nM. The EC50 [14] was 1410 nM.

From publication PMC11876601 (Molecular Systems Biology, 2025)
